{"source": "patent US5292498A", "about": "“Method of treating lung disease with uridine triphosphates” (The University of North Carolina At Chapel Hill, priority 1991, dated 1994)", "test_system": "normal human nasal epithelial cells", "assay": "Intracellular calcium [Ca^2+ ]i in single normal human nasal epithelial cells (Fura-2)", "type": "cell-based", "description": "Freshly excised human nasal epithelium from normal or cystic fibrosis subjects was grown in primary culture in F-12, hormone-supplemented medium in accordance with known procedures. See R. Wu et al., Am. Rev. Respir. Dis. 132, 311-320 (1985). For [Ca^2+ ]i measurements, cultures were grown on non-fluorescent vitrogen substrates on glass coverslips. Cultures for electrophysiologic studies were grown to confluence on permeable collagen matrix supports (CMS), allowing addition of agonists to the basolateral or apical surface of the epithelial sheet.\nPrimary human nasal epithelial cells grown to confluence on vitrogen coated coverslips were loaded with a final concentration of 3 μM Fura-2/AM at 37° C. for 30 minutes. The cells were then washed in NaCl Ringer and mounted in a chamber for measurements of fluorescence. To reduce the rate of leakage of Fura-2 from the cell into the extracellular space and avoid time-dependent compartmentalization of the probe, all measurements of [Ca^2+ ]i were performed at 25° C. At this temperature,no vesicular bright spots indicative of compartmentalization of the probe were observed.\nMeasurements of [Ca^2+ ]i in single human nasal epithelial cells were obtained with a modular microspectrofluorimeter (SPEX Industries, Inc., Edison, N.J.) attached to a Zeiss Axiovert IM 35 microscope. The system was equipped with a xenon lamp, beam splitter, two monochromators and a rotating chopper mirror that permitted excitation of cell fluorescence at alternating wavelengths of 340 and 380 nm (emission ≥450 nm). The fluorescent signal from a single cell was measured with a photometer equipped with a pinhole (spot diameter of 3-5 μm) that excluded signals from adjacent cells.\nAfter agonist was added, the fluorescent signal was quenched by a NaCl ringer solution containing 1.5×10^-4 M digitonin and 10^-3 M MnCl2. The remaining signal at each excitation wavelength, equivalent to the background fluorescence in non loaded cells, was subtracted from data from Fura-2/AM loaded cells before the ratio (340 nm/380 nm) was taken. The 340 nm/380 nm ratio was converted to an actual [Ca^2+ ]i measurement by using the external calibration standards and the formula derived by G. Grynkiewicz et al., J. Biol. Chem. 260, 3440-3450 (1985), used with dual wavelength measurements: [Ca^2+ ]i =K [(Rx --Ro)/(Rs --Rx)], with Ro and Rs representing the ratios at 0 Ca^2+ and saturating Ca^2+, respectively. Rx represents the experimental ratio.\nTo investigate whether changes in [Ca^2+ ]i might be related to regulation of ion transport, receptor characterization was performed by measuring changes in [Ca^2+ ]i in response to a number of nucleotide drugs. Concentration-effect curves for agonists active at P2x, P2y subtype or UTP sensitive receptors and other purine or pyrimidine receptor agonists were generated, measuring mean change in [Ca^2+ ]i in response to agonist concentration. Data are shown in FIG. 3, which gives log concentration-effect relationships of purinergic and pyrimidinergic compounds on [Ca^2+ ]i (mean change in [Ca^2+ ]i over basal levels).", "data": [{"smiles": "Nc1ncnc2c1ncn2[C@@H]1O[C@H](COP(=O)(O)OP(=O)(O)OP(=O)(O)O)[C@@H](O)[C@H]1O", "note": "[ATP, adenosine triphosphate]", "values": [{"measurement": "[Ca^2+ ]i response in Ca^2+ -free medium", "setting": "Ca^2+ -free medium", "value": "initial sharp increase in [Ca^2+ ]i"}, {"measurement": "time for [Ca^2+ ]i to return to baseline", "setting": "Ca^2+ -free medium", "value": "two"}, {"measurement": "effectiveness for raising [Ca^2+ ]i", "setting": "concentration-effect curves, FIG. 3", "value": "most effective agonists"}, {"measurement": "[Ca^2+ ]i response", "setting": "extracellular application, Ca^2+ -containing solution", "value": "immediate increase in [Ca^2+ ]i levels"}, {"measurement": "plateau phase on return to Ca^2+ -containing solution", "setting": "return of cells to Ca^2+ -containing solution", "value": "restoration of the plateau phase"}]}]}
